The values that follow come from US20060052384A1, “Aryl piperidine derivatives as inducers of ldl-receptor expression for the treatment of hypercholesterolemia” (priority 2002, published 2006).

The test system of the first data set is LDL-r promoter and the luciferase reporter gene in HepG2 cells. Description: In vitro assay: induction of luciferase activity in HepG2 cells stably transfected with LDL-r promoter/luciferase reporter construct. Particulars: Homo sapiens, 24 hours incubation, RPMI medium with 2% lipoprotein-deficient serum, tested 10^-6M to 10^-9M. It counts as cell-based. The procedure: HepG2 cells, stably transfected with a construct comprising the LDL-r promoter and the luciferase reporter gene, were seeded at 50,000 cells/well in 96 well plates. After 1 day cells were incubated with compounds for 24 hours in RPMI medium containing 2% of lipoprotein-deficient serum. Compounds were tested from 10^−6M to 10^−9M. Cell lysates were prepared and the luciferase activity was measured by the luciferase assay system (Promega). Induction of luciferase activity was calculated taking untreated cells as control. The ED50 of each compounds was determined compared to the ED50 of an internal standard.
The compound `Cn1cc(C2CCN(CCCCNC(=O)c3ccc(-c4ccc(C(F)(F)F)cc4)c(CO)c3)CC2)c2ccccc21` [Example 1] returned an EC50 of 7 nM.

Compound `COc1c(C2CCN(CCCCNC(=O)c3ccc(-c4ccc(Cl)cn4)cc3)CC2)ccc2c1CCCC2` [Example 32, 4-(5-Chloro-pyridin-2-yl)-N-{4-[4-(1-methoxy-5,6,7,8-tetrahydro-naphthalen-2-yl)-piperidin-1-yl]-butyl}-benzamide] displayed an EC50 of 10 nM.

System in a further data set: not given
Test: not given
Settings: not given
The compound `CCOc1cc(CC)ccc1C1CCN(CCCCNC(=O)c2sc(-c3ccc(C(F)(F)F)cc3)nc2CO)CC1` [Example 4, 4-Hydroxymethyl-2-(4-trifluoromethyl-phenyl)-thiazole-5-carboxylic acid {4-[4-(2-ethoxy-4-ethyl-phenyl)-piperidin-1-yl]-butyl}-amide] had a melting point of 150 °C.

On to `COc1c(C2CCN(CCCCNC(=O)c3sc(-c4ccc(C#N)cc4)nc3CO)CC2)ccc2c1CCCC2` [Example 7, 2-(4-Cyano-phenyl)-hydroxymethyl-thiazole-5-carboxylic acid {4-[4-(1-methoxy-5,6,7,8-tetrahydro-naphthalen-2-yl)-piperidin-1-yl]-butyl}-amide], for which the melting point came out at 212 °C.

`COc1c(C2CCN(CCCCNC(=O)c3sc(-c4ccc(Cl)cc4)nc3C)CC2)ccc2c1CCCC2` [Example 12, 2-(4-Chloro-phenyl)4-methyl-thiazole-5-carboxylic acid {4-[4-(1-methoxy-5,6,7,8-tetrahydro-naphthalen-2-yl)-piperidin-1-yl]-butyl}-amide]: the melting point came to 151 °C.

As to `COc1c(C2CCN(CCCCNC(=O)c3[nH]nc(-c4ccc(C#N)cc4)c3CO)CC2)ccc2c1CCCC2` [Example 14], the melting point lay in the range of 185 to 186 °C.

Take `COc1c(C2CCN(CCCCNC(=O)c3oc(-c4ccc(C#N)cc4)nc3C)CC2)ccc2c1CCCC2` [Example 15, 2-(4-Cyano-phenyl)-4-methyl-oxazole-5-carboxylic acid {4-[4-(1-methoxy-5,6,7,8-tetrahydro-naphthalen-2-yl)-piperidin-1-yl]-butyl}amide]: the melting point was determined as 157 °C.

In turn, `COc1c(C2CCN(CCCCNC(=O)c3oc(-c4ccc(C#N)cc4)nc3CO)CC2)ccc2c1CCCC2` [Example 16, 2-(4-Cyano-phenyl)-4-hydroxymethyl-oxazole-5-carboxylic acid {4-[4-(1-methoxy-5,6,7,8-tetrahydro-naphthalen-2-yl)-piperidin-1-yl]-butyl}-amide] had a melting point of 160 to 162 °C.

In turn, `COc1c(C2CCN(CCCCNC(=O)c3ccc(-c4ccc(C(=O)N(C)C)cc4)cc3)CC2)ccc2c1CCCC2` [Example 19] gave a melting point of 170 °C.

Regarding `COc1c(C2CCN(CCCCNC(=O)c3ccc(-c4ccc(C(C)=O)s4)cc3)CC2)ccc2c1CCCC2` [Example 20, 4-(5-Acetyl-thiophen-2-yl)-N-{4-[4-(1-methoxy-5,6,7,8-tetrahydro-naphthalen-2-yl)-piperidin-1-yl]-butyl}-benzamide], the melting point lay in the range of 216 to 218 °C.

On to `COc1c(C2CCN(CCCCNC(=O)c3ccc(-c4ccc(NS(=O)(=O)CC(F)(F)F)cc4)cc3)CC2)ccc2c1CCCC2` [Example 22, 4′-(2,2,2-Trifluoro-ethanesulfonylamino)-biphenyl4-carboxylic acid {4-[4-(1-methoxy 5,6,7,8-tetrahydro-naphthalen-2-yl)-piperidin-1-yl]-butyl}-amide], for which the melting point lay in the range of 182 to 184 °C.

For `COc1c(C2CCN(CCCCNC(=O)c3ccc(-c4ccc(Cl)s4)cc3)CC2)ccc2c1CCCC2` [Example 23, 4-(5-Chloro-thiophen-2-yl)-N-{4-[4-(1-methoxy-5,6,7,8-tetrahydro-naphthalen-2-yl)-piperidin-1-yl]-butyl}-benzamide], the melting point is 185 to 187 °C.

Turning to `COc1c(C2CCN(CCCCNC(=O)c3ccc(-c4ccc(NS(=O)(=O)C(C)C)cc4)cc3)CC2)ccc2c1CCCC2` [Example 24], the melting point lay within 188 to 190 °C.

Compound `COc1c(C2CCN(CCCCNC(=O)c3ccc(-c4ccc(Cl)cc4)c(O)c3)CC2)ccc2c1CCCC2` [Example 25] returned a melting point of 199 °C.

For `COc1c(C2CCN(CCCCNC(=O)c3ccc(-c4ccc(C(=O)C(F)(F)F)cc4)cc3)CC2)ccc2c1CCCC2` [Example 26, 4′-(2,2,2-Trifluoro-acetyl)-biphenyl-4-carboxylic acid {4-[4-(1-methoxy-5,6,7,8-tetrahydro-naphthalen-2-yl)-piperidin-1-yl]-butyl}-amide], the melting point was 197 to 199 °C.

As to `COc1c(C2CCN(CCCCNC(=O)c3ccc(-c4ccc(NC(=O)C(F)(F)F)cc4)cc3)CC2)ccc2c1CCCC2` [Example 29, 4′-(2,2,2-Trifluoro-acetylamino)-biphenyl-4-carboxylic acid {4-[4-(1-methoxy-5,6,7,8-tetrahydro-naphthalen-2-yl)-piperidin-1-yl]-butyl}-amide], the melting point lay in the range of 226 to 228 °C.

The compound `COc1c(C2CCN(CCCCNC(=O)c3ccc(-c4ccc(C#N)cn4)cc3)CC2)ccc2c1CCCC2` [Example 30, 4-(5-Cyano-pyridin-2-yl)-N-{4-[4-(1-methoxy-5,6,7,8-tetrahydro-naphthalen-2-yl)-piperidin-1-yl]-butyl}-benzamide] gave a melting point of 220 to 222 °C.

`COc1c(C2CCN(CCCCNC(=O)c3ccc(-c4ccsc4C#N)cc3)CC2)ccc2c1CCCC2` [Example 31, 4-(2-Cyano-thiophen-3-yl)-N-{4-[4-(1-methoxy-5,6,7,8-tetrahydro-naphthalen-2-yl)-piperidin-1-yl]-butyl}-benzamide] showed a melting point of 236 to 238 °C.

For the compound `COc1c(C2CCN(CCCCNC(=O)c3ccc(-c4ccc(Cl)cn4)cc3)CC2)ccc2c1CCCC2` [Example 32, 4-(5-Chloro-pyridin-2-yl)-N-{4-[4-(1-methoxy-5,6,7,8-tetrahydro-naphthalen-2-yl)-piperidin-1-yl]-butyl}-benzamide], the melting point is 213 to 215 °C.

As to `COc1c(C2CCN(CCCCNC(=O)c3ccc(-c4csc(C(C)=O)c4)cc3)CC2)ccc2c1CCCC2` [Example 33, 4-(5-Acetyl-thiophen-3-yl)-N-{4-[4-(1-methoxy-5,6,7,8-tetrahydro-naphthalen-2-yl)-piperidin-1-yl]-butyl}-benzamide], the melting point was 208 to 210 °C.

`COc1c(C2CCN(CCCCNC(=O)c3ccc(-c4ccc(Cl)nc4)cc3)CC2)ccc2c1CCCC2` [Example 34] had a melting point of 202 to 204 °C.

`COc1c(C2CCN(CCCCNC(=O)c3ccc(-c4ccc(Cl)nn4)cc3)CC2)ccc2c1CCCC2` [Example 35, 4-(6-Chloro-pyridazin-3-yl)-N-{4-[4-(1-methoxy-5,6,7,8-tetrahydro-naphthalen-2-yl)-piperidin-1-yl]-butyl}-benzamide] had a melting point of 192 to 194 °C.

In turn, `COc1c(C2CCN(CCCCNC(=O)c3ccc(-c4ccc(C#N)o4)cc3)CC2)ccc2c1CCCC2` [Example 36] returned a melting point of 180 to 182 °C.

For `COc1c(C2CCN(CCCCNC(=O)c3ccc(-c4ccc(Cl)cc4)cn3)CC2)ccc2c1CCCC2` [Example 37, 5-(4-Chloro-phenyl)-pyridine-2-carboxylic acid {4-[4-(1-methoxy-5,6,7,8-tetrahydro-naphthalen-2-yl)piperidin-1-yl]-butyl}-amide], the melting point was in the range of 103 to 105 °C.

Compound `COc1c(C2CCN(CCCCNC(=O)c3ccc(-c4ccc(Cl)cc4)nc3)CC2)ccc2c1CCCC2` [Example 38, 6-(4-Chloro-phenyl)-N-{4-[4-(1-methoxy-5,6,7,8-tetrahydro-naphthalen-2-yl)-piperidin-1-yl]-butyl}-nicotinamide] yielded a melting point of 184 to 186 °C.

`COc1c(C2CCN(CCCCNC(=O)c3ccc(-c4ccc(C#N)cc4)nc3)CC2)ccc2c1CCCC2` [Example 39, 6-(4-Cyano-phenyl)-N-{4-[4-(1-methoxy-5,6,7,8-tetrahydro-naphthalen-2-yl)-piperidin-1-yl]-butyl}-nicotinamide] came in with a melting point of 166 to 168 °C.

`COc1c(C2CCN(CCCCNC(=O)c3ccc(-c4ccc(Cl)s4)nc3)CC2)ccc2c1CCCC2` [Example 40, 6-(5-Chloro-thiophen-2-yl)-N-{4-[4-(1-methoxy-5,6,7,8-tetrahydro-naphthalen-2-yl)-piperidin-1-yl]-butyl}-nicotinamide]: the melting point was in the range of 175 to 177 °C.

In the case of `COc1c(C2CCN(CCCCNC(=O)c3ccc(-c4ccc(C#N)cc4)cn3)CC2)ccc2c1CCCC2` [Example 41, 5-(4-Cyano-phenyl)-pyridine-2-carboxylic acid {4-[4-(1-methoxy-5,6,7,8-tetrahydro-naphthalen-2-yl)-piperidin-1-yl]-butyl}-amide], the melting point came to 140 °C.

Compound `COc1c(C2CCN(CCCCNC(=O)c3ccc(-c4ccc(C#N)s4)nc3)CC2)ccc2c1CCCC2` [Example 42, 6-(5-Cyano-thiophen-2-yl)-N-{4-[4-(1-methoxy-5,6,7,8-tetrahydro-naphthalen-2-yl)-piperidin-1-yl]-butyl}-nicotinamide] displayed a melting point of 186 to 188 °C.

On to `COc1c(C2CCN(CCCCNC(=O)c3ccc(-c4ccc(C#N)nc4)cc3)CC2)ccc2c1CCCC2` [Example 43, 4-(6-Cyano-pyridin-3-yl)-N-{4-[4-(1-methoxy-5,6,7,8-tetrahydro-naphthalen-2-yl)-piperidin-1-yl]-butyl}-benzamide], for which the melting point lay in the range of 179 to 181 °C.

For `COc1c(C2CCN(CCCCNC(=O)c3ccc(-c4cnc(C#N)nc4)cc3)CC2)ccc2c1CCCC2` [Example 44, 4-(2-Cyano-pyrimidin-5-yl)-N-{4-[4-(1-methoxy-5,6,7,8-tetrahydro-naphthalen-2-yl)-piperidin-1-yl]-butyl}-benzamide], the melting point came to 202 °C.
